Assay results taken from US20110112148A1, “INDOLINE COMPOUNDS” (Ferrer Internacional S.A., priority 2007, published 2011).

Molecular target: T1, recombinant human MT1 receptor (Homo sapiens, UniProt P48039)
T1 construct: expressed in transfected cells; host or cells: unnamed cell line co-expressing mitochondrial apoaequorin and the Galpha16 subunit
Test: Agonist activity on MT1 receptors (aequorin luminescence, Gα16 co-expressing cell line)
Format: cell-based
Conditions: percentage activity with respect to the reference agonist at its EC100; for MT1 agonism, 1 nm: compound at 1 nm; for MT1 agonism, 100 nm: compound at 100 nm
Excerpt: Determination of the Agonist Activity on MT1 Receptors
In order to screen compounds for the MT1 receptor a cell line is used that is characterised by stable overexpression of the recombinant human MT1 receptor in a cell line that in turn co-expresses mitochondrial apoaequorin and the Gα16 subunit.
The Ga16 subunit belongs to the G protein family, formed by GPCR, wherein the transduction of intracellular signals occurs via phospholipase (PLC). PLC activation produces an increase in inositol-triphosphate levels that leads to an increase in intracellular calcium. Ga16 overexpression thus allows an increase in intracellular calcium levels that is independent and compatible with the study receptor's own signal transduction pathway.
Following its binding to calcium, the aequorin oxidises coelenterazine to coelenteramide, a reaction that releases CO2 and light.
The trial protocol for the screening of possible agonists consists in collecting the cells and keeping them in suspension overnight in the presence of coelenterazine in order to reconstitute aequorin. On the following day the cells are injected on a plate where the compounds to be screened are diluted, and the luminescence released is read immediately. When wishing to study the possible antagonism of the same compounds, the reference agonist compound is added in the same well after 15-30 min from the first injection and the luminescence released is assessed.
Agonist activity is calculated as percentage activity with respect to the reference agonist at the concentration corresponding to its EC100. Antagonist activity is expressed as percentage inhibition over the reference agonist activity at the concentration corresponding to its EC80.

T1 sequence (P48039 whole entry): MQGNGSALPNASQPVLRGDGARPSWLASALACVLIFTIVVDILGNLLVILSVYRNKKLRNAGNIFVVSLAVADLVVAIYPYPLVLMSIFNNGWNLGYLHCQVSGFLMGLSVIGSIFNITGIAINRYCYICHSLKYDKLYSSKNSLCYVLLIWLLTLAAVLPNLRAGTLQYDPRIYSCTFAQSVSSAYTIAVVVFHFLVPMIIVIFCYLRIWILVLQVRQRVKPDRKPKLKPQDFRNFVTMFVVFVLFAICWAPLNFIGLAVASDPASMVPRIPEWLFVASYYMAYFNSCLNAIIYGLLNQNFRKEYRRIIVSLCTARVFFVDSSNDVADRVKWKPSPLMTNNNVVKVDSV

MT1 agonism, 1 nm | MT1 agonism, 100 nm | SMILES
11.5% | 89.8% | COc1ccc2c(c1)N(C(C)CNC(C)=O)CC2 (centres unmarked) [Example 5, N-[2-(6-methoxy-2,3-dihydro-indol-1-yl)-propyl]-acetamide]
13.1% | 92% | COc1ccc2c(c1)N(CCNC(C)=O)CC2 [Example 1, N-[2-(6-methoxy-2,3-dihydro-indol-1-yl)-ethyl]-acetamide]
13.9% | 76.6% | CC(=O)NCCN1CCc2ccc3c(c21)CCO3 [N-[2-(2,3,7,8-tetrahydro-1H-furo[2,3-g]indol-1-yl)-ethyl]-acetamide, reference compound]
14.6% | 94% | COc1ccc2c(c1)N(CCNC(=O)C(F)(F)F)CC2 [Example 4, 2,2,2-trifluoro-N-[2-(6-methoxy-2,3-dihydro-indol-1-yl)-ethyl]-acetamide]
